Measured values: patent US7189761B2, “Nitric oxide donor composition and method for treatment of anal disorders” (priority 1994, dated 2007)
Like-named read-outs stand apart in the source and are kept apart here. Ends that are not written are not given here.

Columns and labels:
[1] = tested on: internal anal sphincter (IAS); conditions: cited from earlier work; for effect on the decrease in IAS resting pressures in response to the rectoanal reflex: reflex mimicked by rectal balloon distention; for reversal of the L-NNA suppression of rectoanal reflex-induced IAS relaxation: in vivo
[2] = tested on: smooth muscle strips of the internal anal sphincter (IAS); conditions: cited from earlier work
[3] = tested on: human internal anal sphincter muscle strips; conditions: cited from earlier work; for effect on relaxations produced by transmural field stimulation: in the presence of atropine and guanethidine
[4] = tested on: anal fissure; experiment: Case reports: topical ointment in patients with anal fissure; type: in vivo, human; conditions: person, superficial posterior midline anal fissure, patient history
Method: The patient rated their pre-treatment pain 7/10. The patient applied approximately 500 mg of the ointment as prepared in Example 1, three times daily and after bowel movements. The patient reported that their pain was gone following initial application.
The patient rated their pre-treatment pain 7/10. The patient applied approximately 500 mg of the ointment as prepared in Example 1, three times daily and after bowel movements. […] After three weeks of treatment, the fissure was healed, and the pain was gone.
They had previously failed a course of hydrocortisone therapy. Pre-treatment pain was rated 9/10. The patient was treated with approximately 500 mg of the preparation of Example 1, three times daily and after bowel movements. After one week of treatment, the fissure was still present, and pain was rated 8/10. The patient was then treated with approximately 500 mg of the preparation of Example 2, three times daily and after bowel movements. Following one week of therapy with the ointment as of Example 2, the patient reported no pain and no bleeding.
Pre-treatment pain was rated 4/10. The patient was treated with the ointment as of Example 2, approximately 500 mg three times daily and after bowel movements. Following one week of therapy, the patient reported that their pain had diminished, and it was rated 2/10. […]

[5] = response to lower frequencies of EFS and DMPP
[6] = isolated IAS smooth muscle strips

Q: Which results are given for `N=C(NCCC[C@H](N)C(=O)O)N[N+](=O)[O-]` [L-NNA, L-NG-nitro-arginine]?
A: effect on the decrease in IAS resting pressures in response to the rectoanal reflex [1]: significant dose-dependent suppression; effect on NO release caused by vasoactive intestinal polypeptide ([2]; IAS smooth muscle strips): abolished; effect of pretreatment on NO release and fall in IAS resting tension [2, 5]: abolished; effect on relaxations produced by transmural field stimulation [3]: completely

Q: Which “outcome of previous course of therapy” value [4] does the source give for `C[C@]12CCC(=O)C=C1CC[C@@H]1[C@@H]2[C@@H](O)C[C@@]2(C)[C@H]1CC[C@]2(O)C(=O)CO` [hydrocortisone, 11-17-21-trihydroxypregn-4-ene-3,20-dione] here?
A: Its value is “failed”.

Q: For “vasoactive intestinal polypeptide: vasoactive intestinal polypeptide (HSDAVFTDNYTRLRKQMAVKKYLNSILN; ends and bridges not checked; UniProt P01282 125-152, looked up)”, which “IAS relaxation and release of NO” value [2, 6] is on record?
A: The value was “release of NO”.

Q: For `C[N+]1(C)CCN(c2ccccc2)CC1` [DMPP, 1,1-dimethyl-4-phenylpiperazinium], which “IAS relaxation and release of NO” value [2] is on record?
A: The value was “caused IAS relaxation with an accompanying release of NO”.

Q: Which “effect on the resting pressure of the IAS” value ([1]; not modified by L-NNA) does the source give for `CC(C)NCC(O)c1ccc(O)c(O)c1` (centres unmarked) [isoproterenol] here?
A: Its value is “decrease”.

Q: What about the “IAS relaxation and release of NO” value [2, 6] of the same compound?
A: The value was “caused IAS relaxation without any increase in NO release”.

Q: With `N=C(N)NCCC[C@H](N)C(=O)O` [L-arginine] as the compound, how does the “reversal of the L-NNA suppression of rectoanal reflex-induced IAS relaxation” value [1] read?
A: Its value is “completely reversed”.

Q: And the “reversal of the loss of NO release and IAS relaxation” value [2]?
A: The value was “reversed to control levels”.

Q: And the “reversal of the inhibitory effects of NO synthase antagonists” value [3]?
A: Its value is “reversed”.

Q: With `N=C(N)NCCC[C@@H](N)C(=O)O` [D-arginine] as the compound, how does the “reversal of the L-NNA suppression of rectoanal reflex-induced IAS relaxation” value [1] read?
A: Its value is “failed to reverse”.

Q: And the “reversal of the loss of NO release and IAS relaxation” value [2]?
A: Its value is “no significant effect”.

Q: And the “reversal of the inhibitory effects of NO synthase antagonists” value [3]?
A: The value was “did not reverse”.

Q: With `NC1=N[C@H](O)[C@H]2[C@H]3O[C@]4(O)O[C@@H]([C@@H](O)[C@@]2(N1)[C@@H]4O)[C@]3(O)CO` [tetrodotoxin] as the compound, how does the “effect of pretreatment on NO release and fall in IAS resting tension” value [2] read?
A: The value was “abolished”.

Q: Which “effect on relaxations produced by transmural field stimulation” value [3] does the source give for oxyhaemoglobin here?
A: The value was “abolished”.

Q: Which “effect on the decrease in IAS resting pressures in response to the rectoanal reflex” value [1] does the source give for `NC(=NCCC[C@@H](N)C(=O)O)N[N+](=O)[O-]` [D-NNA] here?
A: The value was “no effect”.

Q: And the “effect of pretreatment on NO release and fall in IAS resting tension” value [2, 5]?
A: The value was “no significant effect”.

Q: With atrial natriuretic factor as the compound, how does the “IAS relaxation and release of NO” value [2, 6] read?
A: Its value is “caused IAS relaxation without any increase in NO release”.
